{"source": "patent EP2216022A1", "about": "“USE OF C[…] THE TREATMENT OF BASAL CELL CARCINOMA AND OTHER TUMORS” (Tas, Sinan, priority 2001, dated 2002)", "type_in_all_cases": "in vivo, patient", "key": {"[1]": {"system": "basal cell carcinomas (BCC's)", "assay": "Topical cyclopamine cream on basal cell carcinomas: clinical regression", "conditions": "Two BCC's (nasolabial fold, forehead); topical cream 18 mM cyclopamine, 10 ± 2 µl four times per day; visual disappearance of several tumor areas within less than a week, loss of translucency", "text": "(§1) These regions are seen to contain residual BCC`s displaying large cysts in the tumor center and smaller cystic structures of various sizes located among the residual BCC cells towards the periphery. • Fig 2D and Fig 2E show 1000X magnified appearances from the interior and palisading peripheral regions of these residual BCC's and show the presence of massive apoptotic activity among the residual BCC cells regardless of the tumor region.\n1C : BCC, located on forehead, prior to tretment."}, "BCC cells [2]": {"system": "BCC cells", "assay": "Apoptosis by morphological criteria on hematoxylene-eosine stained sections of excised treated BCC's", "conditions": "topical cream 18 mM cyclopamine, 10 ± 2 µl four times per day, excised on fifth and sixth days, means ± standard deviations, at least 16 high-power (1000 X) fields, p < 0.001 vs placebo", "text": "as §1\nCells undergoing apoptosis are known to be removed by macrophages and by nearby cells in normal tissues and the quantitation of apoptotic activity by morphological criteria on hematoxylene-eosine stained sections is known to provide an underestimate.\nFig 2A, 2B, 2C, 2D, 2E, 2F : Microscopic appearences of the cyclopamine- and placebo-treated BCC's, showing the cyclopamine-induced massive apoptotic death and removal of the tumor cells and the disappearence of tumor nodules to leave behind cystic spaces with no tumor cells. Skin areas corresponding to the pre-treatment positions of the BCC's were excised surgically on the fifth and sixth days of cyclopamine exposure with a margin of normal tissue and subjected to conventional fixation, sectioning and hematoxylene-eosine staining for microscopic analyses. 2A : Large cyst in the dermis corresponding to the position of a disappeared tumor nodule showing no residual tumor cells. […]"}, "BCC cells [3]": {"system": "BCC cells", "assay": "Immunohistochemical Ber-Ep4 labelling (differentiation marker) of treated BCC's", "conditions": "topical cream 18 mM cyclopamine, four times per day, excised on fifth and sixth days, means ± standard deviations, p < 0.001 vs placebo", "text": "as §1\nThe loss of translucency in the cyclopamine-treated BCC's raises the intriguing possibility of differentiation of BCC's under the influence of cyclopamine. This possibility, which can be tested by immunohistochemical analyses of the BCC's, is found to be the case in this invention. In normal epidermis, differentiation of basal tayer cells to the upper layer cells is accompanied by a loss of labelling with the monoclonal antibody Ber-Ep4. Ber-Ep4 labels also the BCC cells and is a known marker for these neoplasms.\n(§2) Ber-Ep4 is a known differentiation marker that stains the BCC cells as well as the undifferentiated cells of the normal epidermis basal layer and of hair follicles but not the differentiated upper layer cells of normal epidermis. […] 3D and 3E : Decreased expression of p53 as detected by the monoclonal antibody DO-7 in cyclopamine-treated BCC's (3D) in comparison to the placebo-treated BCC's (3E). Expression of p53 is known to decrease upon differentiation of the epidermal basal cells and upon differentiation of cultured keratinocytes. It is also well known that the amount of p53, detectable by DO-7, increases in cells when they are exposed to DNA-damaging agents. […] Original magnifications are 400X for 3A, 3B, 3D, 3E, 1000X for 3C and 100X for 3F, 3G. All immunohistochemical labellings are with peroxidase-conjugated streptavidin binding to biotinylated secondary antibody; labelling is Indicated by the brown-colored staging. Sections shown in 3F and 3G are stained with Periodic Acid-Schiff and Alcian blue."}, "p53": {"system": "p53", "assay": "Immunohistochemical DO-7 labelling (p53 expression) of treated BCC's", "conditions": "topical cream 18 mM cyclopamine; for % Of Cells Labelled With DO-7: four times per day, excised on fifth and sixth days, means ± standard deviations, p < 0.001 vs placebo", "text": "as §1\nThe p53 is a master regulator of the cellular response to DNA-damage. Amount of this protein is known to increase in the cell nucleus following exposure of cells to genotoxic agents. When the DNA-damage is increased beyond a threshold, p53 serves for the apoptotic death of cells. Radiation therapy of cancer and the genotoxic cancer chemotherapeutics that are currently common, act largely by this mechanism, i.e. by causation of apoptosis secondary to the damaging of DNA. The monoclonal antibody DO-7 can bind both normal and missense mutant (i.e., nonfunctional) forms of p53 and is known to be capable of detecting the increase of p53 in the cells following exposure to DNA-damaging agents.\nSince expression of p53 is known to decrease in epidermal cells upon differentiation, the decreased DO-7 labelling of the cyclopamine-treated BCC's is likely to be secondary to the cyclopamine-induced differentiation of the BCC cells.\n(§3) Ber-Ep4 is a known differentiation marker that stains the BCC cells as well as the undifferentiated cells of the normal epidermis basal layer and of hair follicles but not the differentiated upper layer cells of normal epidermis. […] 3D and 3E : Decreased expression of p53 as detected by the monoclonal antibody DO-7 in cyclopamine-treated BCC's (3D) in comparison to the placebo-treated BCC's (3E). Expression of p53 is known to decrease upon differentiation of the epidermal basal cells and upon differentiation of cultured keratinocytes. It is also well known that the amount of p53, detectable by DO-7, increases in cells when they are exposed to DNA-damaging agents. […]"}, "BCC cells [4]": {"system": "BCC cells", "assay": "Ulex Europaeus lectin type 1 labelling (differentiation marker) of treated BCC's", "conditions": "Residual cells of cyclopamine-treated BCC's; lectin normally does not label BCC's; topical cream 18 mM cyclopamine", "text": "as §1\nas §2, with “Sections shown in 3F and 3G are stained with Periodic Acid-Schiff and Alcian blue.” left out"}, "BCC's": {"system": "BCC's", "assay": "Retraction of treated BCC's from stroma (arrest of proliferation), Periodic Acid-Schiff and Alcian blue sections", "conditions": "Cyclopamine-treated but not placebo-treated BCC's; associated with arrest of proliferation; topical cream 18 mM cyclopamine", "text": "as §1\nArrest of the proliferation of BCC's is known to be associated with their retraction from stroma. Although retraction from stroma can also be caused artefactually by improper fixation and processing of the tissues, adherence to published technical details ensures avoidance of such artefacts.\nas §3"}, "[5]": {"system": "normal epidermis and hair follicles", "conditions": "Normal skin exposed to the same schedule and doses of cyclopamine as the BCC's; undifferentiated basal layer cells preserved", "text": "as §1\n4B and 4C Higher power views from different areas of cyclopamine-treated epidermis showing Ber-Ep4 labelling of the basal cells. […] Original magnification is 400X for 4A and 1000X for 4B, 4C, 4D, immunohistochemical detection procedure is the same as in Fig 3A, 3B; labelling is indicated by brown coloring."}, "[6]": {"conditions": "Non-palisading (interior) cells of the BCC's"}, "[7]": {"conditions": "Peripheral palisading cells of the BCC's"}}}
{"smiles": "CC1=C2C[C@H]3[C@@H](CC=C4C[C@@H](O)CC[C@@]43C)[C@@H]2CC[C@]12O[C@@H]1C[C@H](C)CN[C@H]1[C@H]2C", "note": "[Cyclopamine]", "values": [{"measurement": "clinical regressions of the BCC's", "setting": "[1]", "value": "rapid clinical regressions"}, {"measurement": "% Of Cells Showing ≥ 2 Morphological Signs Of Apoptosis On H&E Stained Tissue Sections", "setting": "BCC cells [2]; [6]", "value": "18 ± 11", "unit": "%"}, {"measurement": "% Of Cells Showing ≥ 2 Morphological Signs Of Apoptosis On H&E Stained Tissue Sections", "setting": "BCC cells [2]; [7]", "value": "20 ± 8", "unit": "%"}, {"measurement": "% Of Cells Labelled With Ber-Ep4", "setting": "BCC cells [3]; [6]", "value": "0 ± 0", "unit": "%"}, {"measurement": "% Of Cells Labelled With Ber-Ep4", "setting": "BCC cells [3]; Non-palisading (interior) cells of the BCC's, listed as cyclopamine", "value": "none"}, {"measurement": "% Of Cells Labelled With Ber-Ep4", "setting": "BCC cells [3]; [7]", "value": "0 ± 0", "unit": "%"}, {"measurement": "% Of Cells Labelled With Ber-Ep4", "setting": "BCC cells [3]; Peripheral palisading cells of the BCC's, listed as cyclopamine", "value": "none"}, {"measurement": "DO-7 labelling intensity and the frequency of labelled cells", "setting": "p53; Cyclopamine-treated BCC's in comparison to placebo-treated BCC's", "value": "markedly decreased"}, {"measurement": "% Of Cells Labelled With DO-7", "setting": "p53; [6]", "value": "5 ± 3", "unit": "%"}, {"measurement": "% Of Cells Labelled With DO-7", "setting": "p53; [7]", "value": "16 ± 11", "unit": "%"}, {"measurement": "labelling of the residual cells with Ulex Europaeus lectin type 1", "setting": "BCC cells [4]", "value": "heterogenous labelling"}, {"measurement": "retraction of BCC's from stroma", "setting": "BCC's", "value": "consistently retracted from stroma"}, {"measurement": "pattern of labelling with Ber-Ep4 of cyclopamine-treated normal epidermis and hair follicle", "setting": "[5]", "value": "normal pattern of labelling"}]}
